# ChEMBL document CHEMBL1221165, “Actin is the primary cellular receptor of bistramide A” (Nat Chem Biol, 2005)
# Active and inactive are the calls of the source. No cut-off for these calls is given here.
# Legend:
# RBL-2H3 [1] = assay: Induction of GFP-PKCdelta translocation from cytoplasm to nuclear in RBL2H3 cells at 200 nM over 30 mins by fluorescent imaging; assay type: functional, cell-based; conditions: Rattus norvegicus
# RBL-2H3 [2] = assay: Induction of GFP-PKCdelta translocation from cytoplasm to plasma membrane in RBL2H3 cells at 200 nM over 30 mins by fluorescent imaging; assay type: functional, cell-based; conditions: Rattus norvegicus
# Oryctolagus cuniculus = organism: Oryctolagus cuniculus; assay: (§1) Binding affinity to rabbit skeletal muscle monomeric actin by isothermal calorimetric method; assay type: tissue-based; conditions: Muscle tissue
# [3] = biological target: Protein kinase C delta type (Rattus norvegicus) (UniProt P09215); assay: Induction of rat recombinant PKCdelta activity
# Protein kinase C delta type (Rattus norvegicus), sequence (P09215 whole entry): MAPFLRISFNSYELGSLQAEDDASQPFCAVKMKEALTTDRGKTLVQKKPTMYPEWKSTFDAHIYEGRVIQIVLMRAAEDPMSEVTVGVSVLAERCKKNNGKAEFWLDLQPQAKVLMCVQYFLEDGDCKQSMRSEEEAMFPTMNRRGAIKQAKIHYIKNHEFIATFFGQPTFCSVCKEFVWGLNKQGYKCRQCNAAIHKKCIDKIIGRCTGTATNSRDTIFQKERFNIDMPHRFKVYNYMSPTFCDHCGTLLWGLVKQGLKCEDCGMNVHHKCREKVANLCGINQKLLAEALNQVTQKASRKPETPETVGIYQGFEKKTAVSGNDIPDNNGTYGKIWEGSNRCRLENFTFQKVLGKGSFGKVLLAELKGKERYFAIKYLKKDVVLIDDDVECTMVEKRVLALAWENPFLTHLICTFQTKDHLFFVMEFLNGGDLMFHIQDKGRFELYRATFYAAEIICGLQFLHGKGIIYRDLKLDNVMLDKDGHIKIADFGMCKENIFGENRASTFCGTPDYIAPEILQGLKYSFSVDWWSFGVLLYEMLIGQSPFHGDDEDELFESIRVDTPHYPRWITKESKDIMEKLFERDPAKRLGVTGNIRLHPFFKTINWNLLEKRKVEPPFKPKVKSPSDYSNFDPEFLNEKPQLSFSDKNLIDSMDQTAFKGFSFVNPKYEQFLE
# MCF7 [4] = assay: Cell cycle arrest in human MCF7 cells assessed as accumulation at G2/M phase at 1 uM after 48 hrs (Rbv = 7%); assay type: functional
# CA46 [5] = assay: Cell cycle arrest in human CA46 cells assessed as accumulation at G2/M phase at 1 uM after 48 hrs; assay type: functional, cell-based
# A549 [6] = assay: Cytotoxicity against human A549 cells assessed as cell viability after 48 hrs; assay type: functional, cell-based; conditions: A549, 48 h
# [7] = Binding affinity to rabbit skeletal muscle globular actin by isothermal calorimetric method; assay type: tissue-based, Oryctolagus cuniculus, Muscle tissue
# MCF7 [8] = assay: Cell cycle arrest in human MCF7 cells assessed as accumulation at S phase at 1 uM after 48 hrs (Rbv = 18%); assay type: functional
# [9] = biological target: T1, Protein kinase C delta type (Homo sapiens, UniProt Q05655); assay: Induction of human recombinant PKCdelta assessed as phosphorylation of amphiphilic peptide substrate at 0.1 uM in presence of 10 uM phosphatidylserine relative to control
# Target sequence in this assay (Q05655 whole entry, looked up): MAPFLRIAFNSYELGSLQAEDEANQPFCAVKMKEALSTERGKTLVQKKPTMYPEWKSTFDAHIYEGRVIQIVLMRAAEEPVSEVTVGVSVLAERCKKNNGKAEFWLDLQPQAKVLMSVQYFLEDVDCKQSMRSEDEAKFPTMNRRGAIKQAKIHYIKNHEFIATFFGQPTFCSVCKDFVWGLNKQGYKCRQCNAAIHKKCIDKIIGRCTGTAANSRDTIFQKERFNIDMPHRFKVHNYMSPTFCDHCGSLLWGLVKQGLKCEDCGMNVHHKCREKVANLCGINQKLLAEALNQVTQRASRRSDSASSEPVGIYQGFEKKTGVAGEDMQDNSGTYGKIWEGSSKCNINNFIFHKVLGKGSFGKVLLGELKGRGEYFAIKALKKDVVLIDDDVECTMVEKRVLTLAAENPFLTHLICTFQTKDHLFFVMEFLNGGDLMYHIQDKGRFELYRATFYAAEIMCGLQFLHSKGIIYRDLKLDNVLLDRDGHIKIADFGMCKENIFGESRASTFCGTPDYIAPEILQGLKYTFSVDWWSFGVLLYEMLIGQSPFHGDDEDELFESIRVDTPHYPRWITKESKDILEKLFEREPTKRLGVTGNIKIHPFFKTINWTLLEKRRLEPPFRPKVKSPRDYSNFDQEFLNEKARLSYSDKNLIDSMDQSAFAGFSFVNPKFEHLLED
# MCF7 [10] = assay: Cell cycle arrest in human MCF7 cells assessed as accumulation at G1 phase at 1 uM after 48 hrs (Rbv = 73%); assay type: functional
# CA46 [11] = assay: Antiproliferative activity against human CA46 cells assessed as binucleated cells at 1 uM after 48 hrs by visual examination (Rbv = 6%); assay type: functional
# [12] = biological target: T1, Protein kinase C delta type; assay: Displacement of [3H]PDBu from human recombinant PKCdelta by competitive binding assay
# Target sequence in this assay (Q05655 whole entry): as the sequence (Q05655 whole entry, looked up) above
# PC-3 [13] = assay: Cell cycle arrest in human PC3 cells assessed as accumulation at G2/M phase at 1 uM after 48 hrs (Rbv = 19%); assay type: functional
# HL-60 [14] = assay: Cell cycle arrest in human HL60 cells assessed as accumulation at S phase at 0.5 uM after 48 hrs (Rbv = 44%); assay type: functional
# [15] = Depolymerization of Mg2+ filamentous actin in human A549 cells at 450 nM by using FITC-phallodin staining; assay type: cell-based
# HL-60 [16] = assay: Cytotoxicity against human HL60 cells assessed as growth inhibition after 48 hrs; assay type: functional; conditions: HL-60, 48 h
# PC-3 [17] = assay: Dissolution of filamentous actin in human PC3 cells at 20 nM within 15 mins by using FITC-phallodin staining by fluorescent microscopy; assay type: functional, cell-based
# HCT-116 [18] = assay: Cytotoxicity against human HCT116 cells assessed as growth inhibition after 48 hrs; assay type: functional; conditions: HCT-116, 48 h
# HL-60 [19] = assay: Cell cycle arrest in human HL60 cells assessed as accumulation at G1 phase at 0.5 uM after 48 hrs (Rbv = 38%); assay type: functional
# A549 [20] = assay: Cytotoxicity against human A549 cells assessed as growth inhibition after 48 hrs; assay type: functional; conditions: A549, 48 h
# HCT-116 [21] = assay: Cytotoxicity against human HCT116 cells assessed as cell viability after 48 hrs; assay type: functional, cell-based; conditions: HCT-116, 48 h
# RBL-2H3 [22] = assay: Induction of GFP-PKCdelta translocation from cytoplasm to nuclear in RBL2H3 cells at 5 uM over 30 mins by fluorescent imaging; assay type: functional, cell-based; conditions: Rattus norvegicus
# HL-60 [23] = assay: Cytotoxicity against human HL60 cells assessed as cell viability after 48 hrs; assay type: functional, cell-based; conditions: HL-60, 48 h
# MCF7 [24] = assay: Cell cycle arrest in human MCF7 cells assessed as accumulation at G0/G1 phase at 1 uM after 48 hrs (Rbv = 74%); assay type: functional
# CA46 [25] = assay: Cell cycle arrest in human CA46 cells assessed as accumulation at G0/G1 phase at 1 uM after 48 hrs; assay type: functional, cell-based
# A549 [26] = assay: Increase in dissolution of filamentous actin in human A549 cells at 120 to 450 nM by using FITC-phallodin staining by fluorescent microscopy; assay type: cell-based
# [27] = biological target: T1, Protein kinase C delta type; assay: Induction of human recombinant PKCdelta assessed as phosphorylation of amphiphilic peptide substrate at 1 uM in presence of 10 uM phosphatidylserine relative to control
# Target sequence in this assay (Q05655 whole entry, looked up): as above
# HL-60 [28] = assay: Cell cycle arrest in human HL60 cells assessed as accumulation at G2/M phase at 0.5 uM after 48 hrs (Rbv = 11%); assay type: functional
# PC-3 [29] = assay: Cell cycle arrest in human PC3 cells assessed as accumulation at S phase at 1 uM after 48 hrs (Rbv = 18%); assay type: functional
# CA46 [30] = assay: Antiproliferative activity against human CA46 cells assessed as mitotic cells at 1 uM after 48 hrs by visual examination (Rbv = 3%); assay type: functional
# A549 [31] = assay: Dissolution of filamentous actin in human A549 cells at 50 to 150 nM by using FITC-phallodin staining by fluorescent microscopy; assay type: cell-based; conditions: TDE = time-dependent effect
# PC-3 [32] = assay: Cell cycle arrest in human PC3 cells assessed as accumulation at G1 phase at 1 uM after 48 hrs (Rbv = 58%); assay type: functional
# PtK2 = assay: Dissolution of filamentous actin in […] PtK2 cells at 20 nM within 15 mins by using FITC-phallodin staining by fluorescent microscopy; assay type: cell-based
# PC-3 [33] = assay: Cytotoxicity against human PC3 cells assessed as cell viability after 48 hrs; assay type: functional, cell-based; conditions: PC-3, 48 h
# A549 [34] = assay: Inhibition of globular actin polymerization at steady state in human A549 cells assessed as change in fluorescence intensity; assay type: cell-based
# A549 [35] = assay: Dissolution of filamentous actin in human A549 cells after 1 hr by using FITC-phallodin staining by fluorescent microscopy; assay type: cell-based
# CHO-K1 = assay: Dissolution of filamentous actin in chinese hamster CHOK1 cells at 20 nM within 15 mins by using FITC-phallodin staining by fluorescent microscopy; assay type: cell-based; conditions: Cricetulus griseus
# PC-3 [36] = assay: Cytotoxicity against human PC3 cells assessed as growth inhibition after 48 hrs; assay type: functional; conditions: PC-3, 48 h
# [37] = Depolymerization of Ca2+ filamentous actin in human A549 cells at 450 nM by using FITC-phallodin staining; assay type: cell-based
# [38] = as §1; assay type: tissue-based, Oryctolagus cuniculus, Muscle tissue
# [39] = Inhibition of actin polymerization
compound,measurement,setting,value
CCC/C=C/C=C/C(=O)O[C@H]1/C(=C/C(=O)OC)C[C@H]2C[C@H]([C@@H](C)O)OC(=O)C[C@H](O)C[C@@H]3C[C@H](OC(C)=O)C(C)(C)[C@](O)(C[C@@H]4C/C(=C/C(=O)OC)C[C@H](/C=C/C(C)(C)[C@]1(O)O2)O4)O3,Activity,RBL-2H3 [1],Active
same,Activity,RBL-2H3 [2],Active
C/C=C/C(=O)C[C@H]1CC[C@H](C)[C@H](CC(=O)NC[C@H](O)[C@H](C)C(=O)NCCC[C@H]2O[C@@]3(CCC[C@H](CC[C@H](C)/C=C(\C)[C@H](C)O)O3)CC[C@@H]2C)O1 [BISTRAMIDE A],Ka,Oryctolagus cuniculus,1.46 ×10⁸ /M
same,Activity,[3],inactive
same,Activity,MCF7 [4],38%
same,Activity,CA46 [5],Active
same,IC50,A549 [6],0.063 µM
same,Kd,[7],0.007 µM
same,Activity,MCF7 [8],24%
same,fold change (FC),[9],4.5
same,Activity,MCF7 [10],33%
same,Activity,CA46 [11],48%
same,Ki,[12],27 µM
same,Activity,PC-3 [13],43%
same,Activity,HL-60 [14],48%
same,Activity,[15],Active
same,GI50,HL-60 [16],0.2 µM
same,Activity,PC-3 [17],Active
same,GI50,HCT-116 [18],0.2 µM
same,Activity,HL-60 [19],18%
same,GI50,A549 [20],0.013 µM
same,IC50,HCT-116 [21],0.437 µM
same,Activity,RBL-2H3 [22],inactive
same,IC50,HL-60 [23],> 1 µM
same,Activity,MCF7 [24],33%
same,Activity,CA46 [25],Active
same,Activity,A549 [26],Active
same,fold change (FC),[27],3.8
same,Activity,HL-60 [28],27%
same,Activity,PC-3 [29],14%
same,Activity,CA46 [30],4%
same,Activity,A549 [31],tde
same,Activity,PC-3 [32],37%
same,Activity,PtK2,Active
same,IC50,PC-3 [33],0.107 µM
same,inhibition,A549 [34],Dose-dependent effect
same,Activity,A549 [35],Dose-dependent effect
same,Activity,CHO-K1,Active
same,GI50,PC-3 [36],0.005 µM
same,Activity,[37],Active
C/C1=C/C(=O)O[C@@H]2C[C@@H](CC[C@H](C)/C=C\C=C\CC1)O[C@@](O)([C@@H]1CSC(=O)N1)C2 [LATRUNCULIN A],Kd,[38],0.17 µM
same,Kd,[39],0.2 µM
